According to ChEMBL document CHEMBL3638431, “2-PYRIDYLOXY-4-NITRILE OREXIN RECEPTOR ANTAGONISTS” (2013):

Assays:
[1] = molecular target: T1, Orexin/Hypocretin receptor type 1 (Homo sapiens, UniProt O43613); assay: (§1) Radioligand Binding Assay: The inhibition constant (Ki) is determined using a radioligand binding assay (described in Bergman et. al. Bioorg. Med. Chem. Lett. 2008, 18, 1425-1430).
T1 sequence (O43613 whole entry): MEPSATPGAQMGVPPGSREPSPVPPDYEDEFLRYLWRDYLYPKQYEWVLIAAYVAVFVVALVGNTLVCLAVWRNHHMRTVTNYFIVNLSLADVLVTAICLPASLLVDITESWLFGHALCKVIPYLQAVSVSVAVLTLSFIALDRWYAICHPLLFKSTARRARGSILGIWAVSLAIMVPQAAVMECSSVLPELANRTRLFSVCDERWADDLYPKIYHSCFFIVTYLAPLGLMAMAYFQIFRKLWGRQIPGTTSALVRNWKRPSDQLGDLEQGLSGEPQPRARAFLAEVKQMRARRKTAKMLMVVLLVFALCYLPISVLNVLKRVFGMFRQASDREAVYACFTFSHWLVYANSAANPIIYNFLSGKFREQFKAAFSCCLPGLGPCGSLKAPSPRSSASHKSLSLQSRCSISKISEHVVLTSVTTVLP

[2] = molecular target: T2, Orexin receptor type 2 (Homo sapiens, UniProt O43614); assay: as §1
T2 sequence (O43614 whole entry): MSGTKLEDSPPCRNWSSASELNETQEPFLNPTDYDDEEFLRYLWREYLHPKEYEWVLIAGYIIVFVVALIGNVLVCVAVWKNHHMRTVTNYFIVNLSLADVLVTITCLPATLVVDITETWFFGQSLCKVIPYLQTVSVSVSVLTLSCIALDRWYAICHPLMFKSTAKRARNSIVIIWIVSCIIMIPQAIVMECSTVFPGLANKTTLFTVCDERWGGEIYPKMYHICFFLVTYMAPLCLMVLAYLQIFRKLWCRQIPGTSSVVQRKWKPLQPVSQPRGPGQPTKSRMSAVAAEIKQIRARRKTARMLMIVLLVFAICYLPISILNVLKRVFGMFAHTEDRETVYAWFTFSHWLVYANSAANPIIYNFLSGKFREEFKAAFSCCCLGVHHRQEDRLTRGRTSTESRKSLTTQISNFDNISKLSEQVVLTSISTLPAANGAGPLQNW

[3] = molecular target: T3, Orexin/Hypocretin receptor type 1 (Rattus norvegicus, UniProt P56718); assay: FLIPR Ca2+ Flux Assay: Chinese hamster ovary (CHO) cells expressing the rat orexin-1 receptor or the human orexin-2 receptor, are grown in Iscove's modified DMEM containing 2 mM L-glutamine, […], 1% hypoxanthine-thymidine supplement, 100 U/ml penicillin, 100 ug/ml streptomycin and 10% heat-inactivated fetal calf serum (FCS). The cells are seeded at 20,000 cells/well into Becton-Dickinson black 384-well clear bottom sterile plates coated with poly-D-lysine. All reagents were from GIBCO-Invitrogen Corp. The seeded plates are incubated overnight at 37° C. and 5% CO2. Ala-6,12 human orexin-A as the agonist is prepared as a 1 mM stock solution in 1% bovine serum albumin (BSA) and diluted in assay buffer (HBSS containing 20 mM HEPES, 0.1% BSA and 2.5 mM probenecid, pH7.4) for use in the assay at a final concentration of 70 pM. Test compounds are prepared as 10 mM stock solution in DMSO, then diluted in 384-well plates, first in DMSO, then assay buffer. On the day of the assay, cells are washed 3 times with 100 ul assay buffer and then incubated for 60 min (37° C., 5% CO2) in 60 ul assay buffer containing 1 uM Fluo-4AM ester, 0.02% pluronic acid, and 1% BSA. The dye loading solution is then aspirated and cells are washed 3 times with 100 ul assay buffer. 30 ul of that same buffer is left in each well. Within the Fluorescent Imaging Plate Reader (FLIPR, Molecular Devices), test compounds are added to the plate in a volume of 25 ul, incubated for 5 min and finally 25 ul of agonist is added. Fluorescence is measured for each well at 1 second intervals for 5 minutes and the height of each fluorescence peak is compared to the height of the fluorescence peak induced by 70 pM Ala-6,12 orexin-A with buffer in place of antagonist.; type: functional
T3 sequence (P56718 whole entry): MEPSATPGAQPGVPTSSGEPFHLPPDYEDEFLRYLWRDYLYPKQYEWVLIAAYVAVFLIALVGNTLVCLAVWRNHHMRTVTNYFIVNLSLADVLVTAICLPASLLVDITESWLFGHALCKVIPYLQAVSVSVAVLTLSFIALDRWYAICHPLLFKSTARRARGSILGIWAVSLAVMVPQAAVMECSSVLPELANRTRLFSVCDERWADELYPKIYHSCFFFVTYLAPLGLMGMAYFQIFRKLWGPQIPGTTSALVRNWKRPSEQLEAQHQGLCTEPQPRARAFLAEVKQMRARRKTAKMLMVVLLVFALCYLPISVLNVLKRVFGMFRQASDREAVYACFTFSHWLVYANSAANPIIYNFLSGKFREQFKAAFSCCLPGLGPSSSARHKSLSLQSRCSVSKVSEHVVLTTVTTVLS

Compound	Ki [1]	Ki [2]	IC50 [3]
Cc1nc(-c2ccccc2C(=O)N2C[C@H](Oc3cc(C#N)ccn3)CC[C@H]2C)no1	1660 nM	4.5 nM	> 10000 nM
C[C@@H]1CC[C@@H](Oc2cc(C#N)ccn2)CN1C(=O)c1ccc(C#N)cc1-n1nccn1	34500 nM	1360 nM	
C[C@@H]1CC[C@@H](Oc2cc(C#N)ccn2)CN1C(=O)c1ccccc1-n1nccn1	813 nM	1.6 nM	3650 nM
C[C@@H]1CC[C@@H](Oc2cc(C#N)ccn2)CN1C(=O)c1ccccc1-c1ncccn1	761 nM	1.3 nM	4870 nM
